The values below come from patent US10004761B2, “Malodor neutralizing composition” (priority 2016, dated 2018).

For the experiment, the system named is hyaluronidase Type IV-S, from bovine testes (Hyase). Put plainly: HA gelation consistency (Method III) in the presence of Hyase. The format is biochemical. The settings on record: for Consistency after 24 h incubation at 37° C.: HA 1% 2 mL. The procedure:
Method III (Viscosity of HA): HA at low concentrations (e.g., 1%) in aqueous solution forms a viscous colloidal hydrogel solution, which yields semi-solid gel particles at room temperature and a solid gel at 4° C.
HA degradation was evaluated using Method III, as described hereinabove.
HA state of gelation was studied in the presence of NAC and various HA-degrading enzymes, using the following Stock solutions:
The tested enzyme (50 μL) was placed in a tube, NAC (50 μL of the Stock solution, final concentration of about 3.3%) was added and the mixture was incubated for 2 hours at room temperature (23° C.). Then, 2 ml of HA 1% were added to each tube and tubes were further incubated at room temperature for additional 24 hours.
In a second set of experiments, NAC (50 μL of the Stock solution) was added to a tube containing 2 ml of HA 1%; and the tubes were incubated for 2 hours at room temperature. Then, the HA-degrading enzyme was added and tubes were incubated at room temperature for additional 24 hours. In control tubes 9 and 10 (containing only HA), 50 μL of water were added to achieve the same volume as the other tested tubes.
In another set of experiments, the effect of NAC powder, (at a final concentration of 20%), on HA gelation in the presence of Hyase or Chondroitinase ABC was tested. HA (2 ml of 1%), and the tested enzyme were incubated with and without 400 mg of NAC powder, at 4° C. and at 37° C.
HA gelation in the presence of various concentrations of NAC and/or various concentrations of Hyase was further studies. […] The solutions were maintained for 24 hours at room temperature, and thereafter Hyase, at various concentrations, was added. Then the mixtures were incubated at room temperature. The enzyme was absent in the control tubes.
In another set of experiments, the effect of various NAC concentrations on gelation of HA 1% (2 mL in each tube) in the presence of Hyase (50 μL of Stock solution) following incubation at 37° C., was tested, using the same procedure as described hereinabove.

Turning to `CC(=O)N[C@@H](CS)C(=O)O` [NAC, N-acetyl L-cysteine], the “NAC concentration that fails to inhibit HA degradation” value (HA 1%, Hyase 50 μL, 37° C. 24 h) is given as “lower than 1%”. Also, the “NAC concentration range with the best effect” value (HA 1%, Hyase 50 μL, at 37° C.) is 4-16%. In addition, the “Consistency after 24 h incubation at 37° C.” value (“Consistency … at 37° C.” for short) (NAC 0.25% (5 mg), Hyase 50 μL) is reported as “Fluid liquid (for a fluid liquid were in the range of 1-500 mPa S)”; the “Consistency … at 37° C.” value (NAC 0.5% (10 mg), Hyase 50 μL) was “Fluid liquid (for a fluid liquid were in the range of 1-500 mPa S)”; the “Consistency … at 37° C.” value (NAC 1.0% (20 mg), Hyase 50 μL) is given as “Viscous liquid (for a viscous liquid in the range of 1-10 Pa S)”; the “Consistency … at 37° C.” value (NAC 2.0% (40 mg), Hyase 50 μL) is reported as “Viscous liquid (for a viscous liquid in the range of 1-10 Pa S)”; the “Consistency … at 37° C.” value (NAC 4.0% (80 mg), Hyase 50 μL) was “Semisolid (for a semi-solid in the range of 50-70 Pa S)”; the “Consistency … at 37° C.” value (NAC 8% (160 mg), Hyase 50 μL) was “Semisolid (for a semi-solid in the range of 50-70 Pa S)”. Besides, the “Consistency … at 37° C.” value is on record as “Semisolid (for a semi-solid in the range of 50-70 Pa S)” (NAC 10% (200 mg), Hyase 50 μL) and “Fluid liquid (for a fluid liquid were in the range of 1-500 mPa S)” (NAC 20% (400 mg), Hyase 50 μL). The Consistency entry runs as follows: (Table 2: Hyase 50 μL + NAC 50 μL (400 mM stock, about 3.3%) 2 h at 23° C., then HA 1% 2 mL, 24 h room temperature) “Solid (for a solid the results were in the range of 80-100 Pa S and higher)”; (Table 3: NAC 50 μL added to HA 1% 2 mL first (0.5% NAC final), 2 h, then Hyase 50 μL, 24 h room temperature) “Fluid Liquid”; (Table 4: NAC 400 mg dry powder (20% final), HA 2 cc of 1%, Hyase 50 μL, 4° C.) “Semisolid (for a semi-solid in the range of 50-70 Pa S)”; (Table 4: NAC 400 mg dry powder (20% final), HA 2 cc of 1%, Hyase 50 μL, 37° C., cell wraps: Viscous liquid) “Viscous”; (Table 5: NAC 5% (2 mL), HA 40 mg dry powder, Hyase 50 μL, room temperature, cell wraps: Solid, no crystals) “Solid, no”; (Table 5: NAC 10% (2 mL), HA 40 mg dry powder, Hyase 50 μL, room temperature, cell wraps: Solid, no crystals) “Solid, no”.
